Columns and labels:
[1] = biological target: Human immunodeficiency virus type 1 protease (Human immunodeficiency virus 1, UniProt Q72874, I47V); assay: Inhibition of HIV1 protease I47V mutant using Abz-Thr-Ile-Nle-p-nitro-Phe-Gln-Arg-NH2 as substrate after 5 mins by spectrophotometry
[2] = system: Human immunodeficiency virus 1; assay: Resistance index, ratio of Ki for HIV1 protease V82A mutant to Ki for HIV1 wild type protease
[3] = biological target: Human immunodeficiency virus type 1 protease (Human immunodeficiency virus 1, UniProt Q72874, V82A); assay: Inhibition of HIV1 protease V82A mutant using Abz-Thr-Ile-Nle-p-nitro-Phe-Gln-Arg-NH2 as substrate after 5 mins by spectrophotometry
[4] = system: Human immunodeficiency virus 1; assay: Resistance index, ratio of Ki for HIV1 protease I47V mutant to Ki for HIV1 wild type protease
Protease = Protease (Human immunodeficiency virus 1, UniProt Q9YQ12); assay: Inhibition of HIV1 wild type protease using Abz-Thr-Ile-Nle-p-nitro-Phe-Gln-Arg-NH2 as substrate after 5 mins by spectrophotometry
[5] = biological target: Human immunodeficiency virus type 1 protease (Human immunodeficiency virus 1, UniProt Q72874, L76V); assay: Inhibition of HIV1 protease L76V mutant using Abz-Thr-Ile-Nle-p-nitro-Phe-Gln-Arg-NH2 as substrate after 5 mins by spectrophotometry
[6] = system: Human immunodeficiency virus 1; assay: Resistance index, ratio of Ki for HIV1 protease L76V mutant to Ki for HIV1 wild type protease
[7] = system: Human immunodeficiency virus 1; assay: Resistance index, ratio of Ki for HIV1 protease N88D mutant to Ki for HIV1 wild type protease
[8] = biological target: Human immunodeficiency virus type 1 protease (Human immunodeficiency virus 1, UniProt Q72874, N88D); assay: Inhibition of HIV1 protease N88D mutant using Abz-Thr-Ile-Nle-p-nitro-Phe-Gln-Arg-NH2 as substrate after 5 mins by spectrophotometry

Sequence of Protease (Q9YQ12 whole entry): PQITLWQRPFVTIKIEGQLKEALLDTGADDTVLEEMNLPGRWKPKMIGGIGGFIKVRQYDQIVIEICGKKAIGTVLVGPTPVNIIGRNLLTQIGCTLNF

COc1ccc(S(=O)(=O)N(C[C@H]2CCC(=O)N2)C[C@@H](O)[C@H](Cc2ccccc2)NC(=O)O[C@@H]2C[C@@H]3CCO[C@@H]3C2)cc1
Ki [1]: 0.46 nM | Ratio Ki [2]: < 2 | Ki [3]: 0.65 nM | Ratio Ki [4]: < 2 | Ki (Protease): 0.44 nM | Ki [5]: 0.8 nM | Ratio Ki [6]: < 2 | Ratio Ki [7]: < 2 | Ki [8]: 0.92 nM

— ChEMBL document CHEMBL2040774, “Potent antiviral HIV-1 protease inhibitor GRL-02031 adapts to the structures of drug resistant mutants with its P1'-pyrrolidinone ring” (J Med Chem, 2012)
